Format in all cases: physicochemical
Data set [1] can be described thus: Competitive suspension equilibration study. The settings on record: room temperature and 60° C. The method, then: A competitive suspension equilibration study was carried out to identify the relative stability of the two crystalline forms of the compound of formula (I) in aqueous and organic solvent systems. Competitive suspension equilibration experiments were conducted in ethyl acetate, 50% methanol/water (v/v) and 50% acetonitrile/water (v/v) at room temperature and 60° C. […] Further crystalline forms of the compound of formula (I) (e.g., the first and second crystalline forms of the compound of formula (I)) were added for conversion material and to act as seeds. Each suspension was allowed to stir for 7 or 14 days, and were analyzed via XRPD to determine which form the solids had converted to.

A short description of data set [2]: Evaporative salt and co-crystal screen (1H NMR, HPLC). Particulars: combined with sodium hydroxide and potassium hydroxide.
Data set [3] is described as follows: Dynamic vapor sorption (DVS), with XRPD on the post-DVS sample. The settings on record: for DVS weight increase during exposure to 80% RH: 25° C., humidity ramped 0 to 95% RH, value at 80% RH; for structural change by XRPD after DVS (exposure to high humidity): XRPD on post-DVS sample; for hygroscopicity classification from DVS: based on weight increase up to 80% RH. As to the method: Dynamic vapor sorption (DVS) was carried out using the TA Instruments Q5000 SA. A predefined amount of the sample, 2.0 to 10.0 mg, was placed in a platinum pan. The sample was allowed to equilibrate at 50° C. at 0% RH for a period of 60 minutes. The sample was then equilibrated at 25° C. before ramping the humidity from 0 to 95% RH at 5% increments every hour. A similar ramp profile was used for desorption cycle. XRPD analysis was also performed on post DVS sample.

A short description of data set [4]: Thermal gravimetric analysis (TGA) and DSC: thermal degradation. Particulars: heated at 10° C./minute under nitrogen. As to the method: DSC data was collected on a TA Instruments Q2000 DSC. A predefined amount of the sample, 2.0 to 10.0 mg, was placed in an aluminum pan and heated at 5° C./minute from 25° C. to 220° C. A purge of dry nitrogen at 100 mL/minute was maintained over the sample. The instrument control and data acquisition are acquired using Q Advantage software release version 5.5.23. The data was processed and presented using the TA Universal Analysis 2000 software version 4.5A build 4.5.0.5.
TGA data was collected on a TA Instruments Q5000 TGA. A predefined amount of the sample, 2.0 to 10.0 mg, was placed in an aluminum pan and heated at 10° C./minute from 40° C. to 300° C., or varied as experimentation dictated. A purge of dry nitrogen at 25 mL/minute was maintained over the sample. The instrument control and data acquisition are acquired using Q Advantage software release version 5.5.23. The data was processed and presented using the TA Universal Analysis 2000 software version 4.5A build 4.5.0.5.

Data set [5] is described as follows: Single solvent slurry screen. As to the method:
Magnetic stirrers were added to vials, and the suspensions were allowed to stir at room temperature for 4 days. Solid samples generated were analyzed via XRPD to assess crystallinity and crystal structure.

A short description of data set [6]: Temperature cycled single solvent slurry screen. The method, then:
Magnetic stirrers were added to vials, and the suspensions were cycled between 50° C. and 5° C. for three cycles with agitation. Solid samples generated were analyzed via XRPD to assess crystallinity and crystal structure. […] Solid samples were obtained from slurries in all other solvents screened.

Data set [7] is described as follows: Binary solvent slurry screen. The settings on record: room temperature. As to the method: Solvent combinations were selected based on solvent properties, functionality, and miscibility. […] Magnetic stirrers were added to vials, and the suspensions were allowed to stir at room temperature for 5 days.

As for `COC[C@H](NC(=O)c1ccn(S(C)(=O)=O)c1)C(=O)Nc1nc(-c2cccc(N3C[C@@H](C)O[C@@H](C)C3)n2)cs1` [compound of formula (I)], the “form conversion of mixed first and second crystalline forms (XRPD)” value in data set [1] (aqueous solvents (methanol/water 14 days, acetonitrile/water 7 days)) was “did not result in the conversion of either crystalline form to the other”; in data set [1] (ethyl acetate, methanol, acetonitrile, within seven days), “fully converted to the second crystalline form”. Also, in data set [2], the “chemical stability in a basic environment (1H NMR, HPLC)” value is on record as “molecular degradation was visible”.

Consider `COC[C@H](NC(=O)c1ccn(S(C)(=O)=O)c1)C(=O)Nc1nc(-c2cccc(N3C[C@@H](C)O[C@@H](C)C3)n2)cs1` [second crystalline form of the compound of formula (I)], for which, in data set [3], the “DVS weight increase during exposure to 80% RH” value was 0.04 % (w/w). In addition, the “structural change by XRPD after DVS (exposure to high humidity)” value in data set [3] is recorded as “no structural changes occurred”. The “hygroscopicity classification from DVS” value in data set [3] is on record as “non-hygroscopic”. Besides, the “molecular degradation temperature (TGA/DSC), degradation from” value in data set [4] stood at 240 °C. For the same molecule, the “solubility in THF” value in data set [5] (room temperature slurry) and in data set [6] (temperature cycled slurry) was “extremely high” in each case. For the same molecule, the “crystal structure after slurry (XRPD), form stability” value in data set [5] (single solvents except THF, stirred at room temperature for 4 days) was “the same crystal structure”; in data set [6] (single solvents except THF, cycled between 50° C. and 5° C. for three cycles) it was “the same crystal structure”; in data set [7] (50/50 (v/v) solvent mixtures except methanol/THF, 5 days) it was “the same crystal structure”. The “solubility in methanol/THF” value in data set [7] (50/50 (v/v)) is given as “high”.

On to `COC[C@H](NC(=O)c1ccn(S(C)(=O)=O)c1)C(=O)Nc1nc(-c2cccc(N3C[C@@H](C)O[C@@H](C)C3)n2)cs1` [first crystalline form of the compound of formula (I)], for which, in data set [3], the “DVS weight increase during exposure to 80% RH” value was 1.4 % (w/w), the “structural change by XRPD after DVS (exposure to high humidity)” value is listed as “no structural changes occurred” and the “hygroscopicity classification from DVS” value is recorded as “slightly hygroscopic”. In addition, in data set [4], the “molecular degradation onset (TGA/DSC)” value came to 254.3 °C and the “molecular degradation temperature (TGA/DSC), degradation from” value is 220 °C.
